Values after ≈ are worked out from the molar mass of the structure shown.

Assay type in all cases: functional
For one assay, the system named is Cryptococcus neoformans. The assay is described as follows: Antimicrobial activity against Cryptococcus neoformans by microtiter-plate assay.
For a further assay, the system named is Pseudomonas aeruginosa. The assay is described as follows: Antimicrobial activity against Pseudomonas aeruginosa by microtiter-plate assay.
In the next assay the test system is Plasmodium falciparum. The assay is described as follows: Antiparasitic activity against Plasmodium falciparum W2.

In turn, `CC1=C2C[C@]3(C)C(=O)C[C@@H](C(C)C)[C@H]3C[C@H]3O[C@@]3(C)[C@@H]2CC1=O` yielded an MIC in the assay on Cryptococcus neoformans of 50 µg/mL (≈ 158 µM).
Consider `CC1=C2C[C@]3(C)C(=O)C[C@@H](C(C)C)[C@H]3C/C=C(/C)[C@@H]2CC1=O` [HYPOESTENONE], for which the minimum inhibitory concentration (MIC) was 20 µg/mL (≈ 66.6 µM) in the assay with Cryptococcus neoformans, 45 µg/mL (≈ 150 µM) in the assay on Pseudomonas aeruginosa and 2.8 µg/mL (≈ 9.32 µM) against Plasmodium falciparum.

(Values after ChEMBL document CHEMBL1150575, “Microbial transformation of hypoestenone” (2001).)
